Experimental findings from PubChem BioAssay (NCI) are described below.

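Following 48 hours of exposure in 96-well plates, responses at five concentrations were used to interpolate endpoints linearly. TGI: concentration producing complete growth inhibition.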

Assay in all cases: growth of human tumour cells (NCI), 48 h
In assay [1] the test system is UACC-257 melanoma.
Assay [2] relates to EKVX NSCLC.
Assay [3] relates to ACHN renal.
Assay [4] has as its system M14 melanoma.
In assay [5] the test system is T-47D breast.
The subject of assay [6] is NCI/ADR-RES ovarian.
In assay [7] the test system is LOX IMVI melanoma.
For assay [8], the system named is A498 renal.
In assay [9] the test system is MCF7 breast.
Assay [10] deals with SF-539 CNS.
Assay [11] relates to RPMI-8226 leukemia.
Assay [12] has as its system OVCAR-8 ovarian.
The test system of assay [13] is MALME-3M melanoma.
Assay [14] deals with BT-549 breast.

Take `COc1ccccc1/[N+]([O-])=C/c1ccccc1OC(=S)S`: the TGI in [1], in assay [2], in assay [3], in assay [4], in assay [5] and in assay [6] was more than 100 µM in each case. Besides, the TGI in [7] is more than 100 µM; in assay [8] it was more than 100 µM; in assay [9] it was more than 100 µM; in assay [10] it was more than 100 µM; in [11], 63.7 µM; in [12], 66.2 µM. Moreover, the TGI in assay [13] and in [14] was more than 100 µM in each case.

Consider `Cc1ccc([N+](=O)[O-])cc1S(=O)(=O)Nc1ccc(C2=NOC(c3ccccc3)C2)cc1` (configuration not stated), for which the TGI in assay [1] stood at 79.6 µM; in [2] it was 69.1 µM; in assay [3], 50.4 µM; in assay [4], 18.1 µM; in [5], 51.1 µM; in [6] it was 67.3 µM. In addition, the TGI was 24.3 µM in assay [7]; 56.8 µM in [8]; 16.5 µM in assay [9]; 33.4 µM in [10]; 34.6 µM in [11]; more than 100 µM in [12]. Moreover, the TGI was 68.2 µM in assay [13] and 51.9 µM in [14].

`COC(=O)C1=C(O)C(C(=O)OC)[C@]2(O)[C@H](C(=O)OC)[C@H]1C[C@@H](c1ccc(Cl)cc1Cl)[C@H]2C(=O)OC` (some centres not stated): the TGI is 28.7 µM in assay [1]; more than 100 µM in [2]; 42.4 µM in assay [3]; 19.1 µM in assay [4]; 96.9 µM in [5]; 38.2 µM in assay [6]. Moreover, the TGI in assay [7] stood at 18.7 µM; in [8] it was 30.4 µM; in assay [9], 23 µM; in assay [10], 17.5 µM; in assay [11] it was 7.74 µM; in assay [12], 18 µM. In addition, the figures for the TGI in assay [13] and in assay [14] were 20.6 µM and 66.6 µM, respectively.

Turning to `CC(=O)N1c2ccccc2C2=NN=C(N(C)C)SC21` (configuration not stated), the TGI in assay [1] amounted to 12.7 µM; in assay [2] it was 12.8 µM; in assay [3], 10.4 µM; in [4] it was 7.97 µM; in assay [5], 14.9 µM; in assay [6], 10.4 µM. Also, the TGI in assay [7] stood at 14.1 µM; in [8], 11.7 µM; in assay [9] it was 14.9 µM; in assay [10], 18.3 µM; in [11], 81.3 µM; in assay [12], 12.1 µM. Moreover, the figures for the TGI in assay [13] and in assay [14] were 12.9 µM and 24.2 µM, respectively.

For the compound `COc1ccc(C[C@H]2NC[C@H](OC(C)=O)[C@H]2OC(C)=O)cc1`, the TGI in [1] amounted to 2.98 µM; in assay [2] it was 0.606 µM; in assay [3] it was 0.853 µM; in assay [4], 0.328 µM; in assay [5], 0.7 µM; in assay [6], 0.788 µM. The TGI in assay [7] was 0.331 µM; in assay [8] it was 4.27 µM; in [9], more than 100 µM; in assay [10] it was 10.4 µM; in assay [11], 1.95 µM; in [12], 2 µM. The TGI was 0.561 µM in assay [13] and 0.564 µM in [14].

For the compound `Cc1nc(C)c(N2CCN(C(=O)NC(CCC(=O)O)C(=O)O)CC2)c(=O)[nH]1` (configuration not stated), the TGI in assay [1], in assay [2], in assay [3], in assay [4], in [5] and in [6] was more than 100 µM in each case. Also, the TGI in assay [7], in assay [8], in assay [9], in [10], in assay [11] and in [12] was more than 100 µM throughout. For the same compound, the TGI in assay [13] and in [14] was more than 100 µM each time.

Regarding `CNc1nc2c(C)ccc3nc(N(C)C)nc-3c2n1C`, the TGI in assay [1], in assay [2], in assay [3], in assay [4], in assay [5] and in assay [6] was more than 10 µM in each case. In addition, the TGI in [8], in assay [9], in assay [10], in assay [11], in assay [12] and in [13] was more than 10 µM in each case. The same compound returned a TGI in assay [14] of more than 10 µM.

Turning to `O=c1[nH]nc(Cc2ccccc2)n1N=C1CCCCC1`, the TGI in assay [1], in [2], in assay [3], in assay [4], in assay [5] and in assay [6] was more than 100 µM throughout. The TGI in [7], in assay [8], in [9], in assay [11], in assay [12] and in [13] was more than 100 µM throughout. The compound also had a TGI in [14] of more than 100 µM.

As to `CN(C)Cc1cc(N=Nc2c(Cl)cccc2Cl)ccc1O`, the TGI in assay [1], in [2], in assay [3], in assay [5], in assay [6] and in assay [7] was more than 100 µM each time. Besides, the TGI in assay [8], in assay [9], in assay [10], in assay [11], in [12] and in [13] was more than 100 µM in each case. This compound gave a TGI in assay [14] of more than 100 µM.

`O=[N+]([O-])/C(C(Cl)=C(Cl)Cl)=C(\Nc1cccc2cccnc12)Sc1ccccc1`: the TGI was 55.7 µM in [1]; more than 100 µM in assay [2]; 71.1 µM in assay [3]; more than 100 µM in [4]; 38.4 µM in assay [5]; 63.5 µM in assay [6]. Further, the TGI was 69.4 µM in assay [8]; more than 100 µM in assay [9]; 40.4 µM in [10]; more than 100 µM in assay [11]; 64.9 µM in assay [13]; 48 µM in assay [14].

Turning to `O=C(/C=C/c1ccsc1)c1cccs1`, the TGI in assay [1] was more than 100 µM; in assay [2], 99.4 µM; in assay [3], more than 100 µM; in assay [4] it was 54.4 µM; in [5] it was 54.3 µM; in [6] it was 44.9 µM. The TGI was more than 100 µM in assay [8]; 52.2 µM in [9]; more than 100 µM in [10]; more than 10 µM in assay [12]; more than 100 µM in assay [13]; 48 µM in assay [14].

Consider `CSC1=C(C)S/C(=C\c2ccc(/C=C3\SC(C)=C(SC)S3)cc2)S1`, for which the TGI in assay [1], in [2], in assay [3], in assay [4], in assay [5] and in [6] was more than 100 µM each time. The TGI in [7] was more than 100 µM; in [8] it was more than 100 µM; in assay [9], more than 100 µM; in assay [10], 92.5 µM; in assay [12], more than 100 µM; in assay [13], more than 100 µM. The compound further came in with a TGI in [14] of more than 100 µM.

For `CC(C)C(=O)CC(Sc1ccc(N)cc1)c1ccccc1` (configuration not stated), the TGI was more than 100 µM in [1]; 58.3 µM in assay [3]; more than 100 µM in assay [4]; 71.6 µM in assay [5]; 99.6 µM in assay [6]; 33.8 µM in [7]. Moreover, the TGI was 89.1 µM in assay [8]; 47.1 µM in assay [9]; 63.5 µM in assay [10]; 63.1 µM in [11]; 96.9 µM in assay [12]; more than 100 µM in assay [13]. Further, the TGI in assay [14] is 65.6 µM.

As to `CCOC(=O)c1nc2cc(F)c(F)cc2nc1NCc1cc(OC)c(OC)c(OC)c1`, the TGI in assay [1], in assay [2], in assay [3], in assay [4], in assay [5] and in assay [6] was more than 100 µM in each case. The TGI in assay [7], in [8], in [9], in assay [10], in assay [12] and in [13] was more than 100 µM throughout. Further, the TGI in assay [14] is more than 100 µM.

`CCOC(=O)C(C)c1nc2cc(F)c(N3CCOCC3)cc2[nH]c1=O` (configuration not stated): the TGI in assay [1], in assay [2], in [3], in [4], in assay [5] and in assay [6] was more than 100 µM each time. Moreover, the TGI in assay [8], in [9], in assay [10], in assay [11], in assay [12] and in [13] was more than 100 µM in each case. This compound came in with a TGI in assay [14] of more than 100 µM.

`O=C1c2scc(-c3ccc(F)cc3)c2-n2cccc21`: the TGI in assay [1], in assay [2], in [3], in assay [4], in [5] and in assay [6] was more than 100 µM in each case. For the same compound, the TGI is more than 100 µM in [7]; 3.1 µM in assay [8]; more than 100 µM in assay [9]; more than 100 µM in assay [11]; more than 100 µM in assay [12]; more than 100 µM in [13]. The compound also returned a TGI in [14] of 79.7 µM.
